The values below come from ChEMBL document CHEMBL5131394, “Structure-activity and mechanistic studies of non-peptidic inhibitors of the PLK1 polo box domain identified through REPLACE” (Eur J Med Chem, 2022).

In assay [1] the target is T1, Serine/threonine-protein kinase PLK1 (Homo sapiens, UniProt P53350). Description: Binding affinity to recombinant human N-terminal GST-tagged PLK1-PBD (367 to 603 end residue) expressed in Escherichia coli using MAGPMQS[pT]PLNGAKK as substrate incubated for 45 mins by fluorescence polarization assay. On the technique in general: Fluorescence polarisation rises when a labelled molecule tumbles more slowly, as on binding a larger partner.

Assay [2] deals with HeLa. Description: Antiproliferative activity against human HeLa cells assessed as cell viability measured after 72 hrs by MTT assay. The assay is classed as functional, cell-based. (Tetrazolium assays rely on reduction of a dye to a coloured formazan, in cell work by metabolically active cells.)
For assay [3], the system named is A549. Briefly: Antiproliferative activity against human A549 cells assessed as cell viability measured after 72 hrs by MTT assay. The assay is classed as functional, cell-based. As to conditions: A549, 72 h.
Assay [4] is described as follows: Antiproliferative activity against human HCT116-p53-null cells assessed as cell viability measured after 72 hrs by MTT assay. Type of assay: functional, cell-based.
In assay [5] the test system is PC-3. Briefly: Antiproliferative activity against human PC-3 cells assessed as cell viability measured after 72 hrs by MTT assay. Type of assay: functional, cell-based. As to conditions: PC-3, 72 h.
Assay [6] in a line: Antiproliferative activity against human p53HCT116 cells assessed as cell viability measured after 72 hrs by MTT assay. The assay is classed as functional, cell-based. As to conditions: p53HCT116, 72 h.
Assay [7] concerns the target T1, Serine/threonine-protein kinase PLK1. Briefly: Binding affinity to full length PLK1 in human PC-3 cells assessed as stabilized protein incubated for 2 hrs followed by aggregation temperature at 56.2 degC by […] analysis. Type of assay: cell-based.
A short description of assay [8]: Antiproliferative activity against human RPE cells expressing PLK1 C67V mutant assessed as reduction in cell viability measured after 72 hrs by MTT assay. The assay is classed as functional, cell-based.
The nature of assay [9]: Antiproliferative activity against human RPE cells expressing wild-type PLK1 assessed as reduction in cell viability measured after 72 hrs by MTT assay. Type of assay: functional, cell-based.
In assay [10] the test system is PC-3. Description: Induction of mitotic arrest in human PC-3 cells assessed as accumulation of cells at G2/M phase. Type of assay: functional.

T1 sequence (P53350 whole entry): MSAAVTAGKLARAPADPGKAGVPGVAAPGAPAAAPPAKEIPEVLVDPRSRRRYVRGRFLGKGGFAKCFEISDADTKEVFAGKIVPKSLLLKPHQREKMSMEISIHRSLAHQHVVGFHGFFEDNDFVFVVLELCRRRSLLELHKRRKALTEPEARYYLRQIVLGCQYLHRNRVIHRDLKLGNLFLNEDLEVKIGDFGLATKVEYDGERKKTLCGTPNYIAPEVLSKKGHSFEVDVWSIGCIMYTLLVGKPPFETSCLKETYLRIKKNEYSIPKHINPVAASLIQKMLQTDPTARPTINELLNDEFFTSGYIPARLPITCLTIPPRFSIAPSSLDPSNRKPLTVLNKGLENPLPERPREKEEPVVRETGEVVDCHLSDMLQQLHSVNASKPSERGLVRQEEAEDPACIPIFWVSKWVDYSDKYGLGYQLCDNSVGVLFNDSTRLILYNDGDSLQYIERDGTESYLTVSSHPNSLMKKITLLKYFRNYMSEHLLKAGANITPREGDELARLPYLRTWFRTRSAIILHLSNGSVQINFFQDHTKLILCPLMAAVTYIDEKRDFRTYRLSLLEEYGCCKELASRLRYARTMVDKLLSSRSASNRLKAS

Consider `CCCCc1ccc(C(=O)Nc2ccccc2C(=O)O)cc1`, for which, in assay [1], the IC50 is over 600 µM.

`CCCCCCCCc1ccc(CNc2ccccc2C(=O)O)cc1`: the half-maximal inhibitory concentration (IC50) in assay [1] stood at 9.8 µM.

Turning to `CCCCCCCCc1ccc(C(=O)Nc2ccc(OC)cc2C(=O)O)cc1`, the IC50 in assay [1] worked out at 5.9 µM; in [2], 8 µM.

Regarding `CCCCCCCCc1ccc(CNc2cccc(CC)c2)cc1`, the half-maximal inhibitory concentration (IC50) in assay [1] is over 600 µM.

With `CCCCCCCCc1ccc(C(=O)Nc2cccc(O)c2C(=O)O)cc1`, in [1], the IC50 came to 7.9 µM.

Turning to `CCCCCCCCc1ccc(C(=O)Nc2cccc([N+](=O)[O-])c2C(=O)O)cc1`, the half-inhibitory concentration (IC50) in [1] came to 6.1 µM.

Take `CCCCCCCCc1ccc(CNc2cccc(OP(=O)(O)O)c2)cc1`: in assay [1], the IC50 is over 600 µM.

As to `CCCCCc1ccc(C(=O)Nc2ccccc2C(=O)O)cc1`, the IC50 in assay [1] turned out to be 224 µM.

With `CCCCCCCCc1ccc(C(=O)Nc2cccc(C(F)(F)F)c2C(=O)O)cc1`, the IC50 in [1] is 29.4 µM.

Turning to `CCCCCCCCc1ccc(C(=O)Nc2c(O)cccc2C(=O)O)cc1`, the IC50 in assay [1] amounted to 12 µM.

Regarding `CCCCCCCCc1ccc(CCNc2ccccc2C(=O)O)cc1`, the concentration for half-maximal inhibition (IC50) in [1] came out at 118 µM.

As to `CCCCCCCCc1ccc(C(=O)Nc2ccccc2B(O)O)cc1`, the IC50 in [1] is over 600 µM.

For the compound `CCCCCCCCc1ccc(C(=O)Nc2ccccc2[N+](=O)[O-])cc1`, the 50% inhibitory concentration (IC50) in [1] was over 600 µM.

As for `CCCCCCCCc1ccc(C(=O)Nc2cc(F)cc(F)c2C(=O)O)cc1`, in [1], the IC50 came to 30.6 µM.

On to `CCCCCCCCc1ccc(C(=O)Nc2cc(C)ccc2C(=O)O)cc1`, for which the half-inhibitory concentration (IC50) was determined as 4 µM in assay [1]; 3.5 µM in assay [3]; 11.4 µM in [4]; 18.8 µM in [5]; 24.2 µM in assay [6].

On to `CCCCCCCCc1ccc(C(=O)Nc2ccc(C)cc2C(=O)O)cc1`, for which the EC50 in [7] came to 0.82 µM. Moreover, the IC50 was found to be 12.6 µM in [8]; 2.2 µM in [1]; 5.1 µM in assay [3]; 13.4 µM in assay [9]; 10 µM in assay [4]; 16.3 µM in assay [5]. Further, the IC50 in assay [6] amounted to 17.4 µM.

Regarding `CCCCCCCCc1ccc(C(=O)Nc2cccc(OC)c2C(=O)O)cc1`, in assay [1], the IC50 was 29.6 µM.

As for `CCCCCCCCc1ccc(CNc2ccc(C)cc2C(=O)O)cc1`, the half-maximal inhibitory concentration (IC50) in assay [1] was over 600 µM.

Regarding `CCCCCCCCc1ccc(C(=O)Nc2ccccc2C(=O)OCC)cc1`, the half-maximal inhibitory concentration (IC50) in assay [1] was over 600 µM; in [2], over 100 µM; in assay [5], over 100 µM.

As to `CCCCCCCCc1ccc(C(=O)Nc2cccc(Cl)c2C(=O)O)cc1`, in assay [1], the half-inhibitory concentration (IC50) worked out at 25.3 µM.

Take `CCCCCCCCc1ccc(C(=O)Nc2cccc(OP(=O)(O)O)c2)cc1`: the IC50 in [1] was 98.3 µM.

Turning to `CCCCCCCCCCCCc1ccc(C(=O)Nc2ccccc2C(=O)O)cc1`, in assay [5], the IC50 stood at 14 µM.

As for `CCCCCCCCc1ccc(CNc2cccc(F)c2C(=O)O)cc1`, in [1], the half-maximal inhibitory concentration (IC50) stood at 18.8 µM.

With `CCCCCCCCc1ccc(C(=O)Nc2cccc(F)c2C(=O)O)cc1`, the IC50 amounted to 9.1 µM in assay [8]; 11.1 µM in [1]; 2.9 µM in assay [3]; 8.79 µM in assay [9]; 10 µM in assay [4]; 11.6 µM in assay [5].

Regarding `CCCCCCCCc1ccc(C(=O)Nc2ccccc2S(N)(=O)=O)cc1`, the IC50 in assay [1] was determined as 259 µM.

With `CCCCCCCCc1ccc(C(=O)Nc2ccccc2C(=O)O)cc1`, the concentration for half-maximal inhibition (IC50) in assay [8] worked out at 25.9 µM; in assay [3], 2.8 µM; in assay [9], 33 µM; in assay [4], 8 µM.

Take `CC[C@@H]1C(=O)N(C)c2cnc(Nc3ccc(C(=O)NC4CCN(C)CC4)cc3OC)nc2N1C1CCCC1` [BI-2536]: in assay [10], the Activity is over 75%.

Consider `CCCCCCCCc1ccc(CNc2cc(C)ccc2C(=O)O)cc1`, for which the IC50 in assay [1] stood at 21.7 µM.

As a reminder, the IC50 is the midpoint of a concentration-inhibition curve. By EC50 is commonly meant the concentration at which the effect is half-maximal.
